# Reference: patent US10538523B2, “4-(biphen-3-yl)-1H-pyrazolo[3,4-c]pyridazine derivatives of formula (I) as GABA receptor modulators for use in the treatment of epilepsy and pain” (PFIZER LIMITED, priority 2015, dated 2020)
# Tests used:
# [1] = molecular target: human recombinant GABA A receptor containing the alpha2, beta2, and gamma2 subunits (Homo sapiens (Human), UniProt P18507+P47869); test: Radioligand competition binding assay with [3H]Ro-15-1788 (Flumazenil); settings: [3H]flumazenil competition, HEK cell membranes, geometric mean of at least two replicates; read-out: GABA-α2 Ki
# Procedure: The affinity of the test compounds was determined by radioligand competition binding assay, using the known compound [3H]Ro-15-1788 (Flumazenil) (Perkin Elmer, 85.4 Ci/mmol) and the human recombinant GABA A receptor containing the alpha2, beta2, and gamma2 subunits.
# Membranes were prepared from HEK cells expressing hGABA A alpha2beta2-gamma2 receptor, and validated to ascertain protein concentration, receptor expression and to determine the Kd of the flumazenil as well as the Ki of a standard set of compounds before being used to test new compounds.
# The assay was carried out in 96 well plates; testing compounds using a 10 point semi-log dilution range from 19 uM top concentration. 100 ul of radioligand and 100 ul of membrane in 50 mM Tris-HCl and 0.05% F127 with 1 ul of test compound was incubated for 2 hours to allow the reaction to achieve equilibrium, and then harvested onto filter plates, dried and counted on a TopCount NXT. The data was analysed, and the Ki values were presented as the geometric mean of at least two replicates.
# [2] = molecular target: GABRA1-GABRB3-GABRG2 construct in HEK cells (Homo sapiens (Human), UniProt P14867+P18507); test: QPatch electrophysiological recording, % enhancement of GABA current (α1 PAM); type: cell-based; settings: % enhancement of GABA current at approximately EC10 GABA, −60 mV, whole-cell patch clamp
# [3] = molecular target: GABRA2-GABRB2-GABRG2 chloride currents in HEK cells (Homo sapiens (Human), UniProt P18507+P47869); test: QPatch electrophysiological recording, % enhancement of GABA current (α2 PAM); type: cell-based; settings: % enhancement of GABA current at approximately EC10 GABA, −60 mV, whole-cell patch clamp
# Procedure: Human Embryonic Kidney (HEK) cells were transfected with a GABRA2-GABRB2-GABRG2 construct using standard techniques. Cells stably expressing the GABRA2-GABRB2-GABRG2 constructs were identified by their resistance to Geneticin G-418 (320 μg/ml), Hygromycin (160 μg/ml) and Zeocin (40 μg/ml). Clones were screened for expression using the BD Pathway 855 imaging system (BD Biosciences, Rockville, Md., USA) and QPatch automated electrophysiology platform (Sophion, Copenhagen, Denmark). […]
# GABRA2-GABRB2-GABRG2 chloride currents in HEK cells were measured using the whole-cell configuration of the patch-clamp technique (Hamill et al., 1981). […]
# All compounds were dissolved in dimethyl sulfoxide to make 30 mM or 10 mM stock solutions, which were then diluted to 1000 times the desired final concentration in dimethyl sulfoxide. […] Currents were recorded at −60 mV, using an approximately EC10 concentration of gamma-aminobutyric acid (GABA). […]
# Compound effect (% enhancement of gamma-aminobutyric acid current) was calculated using the following formula: [((peak modulator current amplitude-leak)−(GABA current amplitude-leak))/(GABA current amplitude-leak)]*100, […]
Ki [1],α1 PAM [2],α2 PAM [3],SMILES
< 0.6 nM,18%,109%,"CCn1ncc2c(-c3ccc(F)c(-c4ccc(S(=O)(=O)CC)cc4OC)c3)cnnc21 [Example 1, 4-(4′-Ethanesulfonyl-6-fluoro-2′-methoxybiphenyl-3-yl)-1-ethyl-1H-pyrazolo[3,4-c]pyridazine]"
17.5 nM,52%,109%,"CCn1ncc2c(-c3ccc(F)c(-c4ccc(S(=O)(=O)CC)cc4)c3)cnnc21 [Example 2, 4-(4′-Ethanesulfonyl-6-fluorobiphenyl-3-yl)-1-ethyl-1H-pyrazolo[3,4-c]pyridazine]"
